Each structure is given as a SMILES string.

From patent publication US20190192524A1, “Modulators of Caspase-6” (The University of British Columbia, priority 2014, published 2019) come the findings set out here.

The target in series [1] is T1, full-length human caspase-6 (Homo sapiens, UniProt P55212).
T1 construct: DDK-tag (C); expressed in transfected cells; host or cells: COS-7
T1 sequence (P55212 with tags, fused parts or gaps): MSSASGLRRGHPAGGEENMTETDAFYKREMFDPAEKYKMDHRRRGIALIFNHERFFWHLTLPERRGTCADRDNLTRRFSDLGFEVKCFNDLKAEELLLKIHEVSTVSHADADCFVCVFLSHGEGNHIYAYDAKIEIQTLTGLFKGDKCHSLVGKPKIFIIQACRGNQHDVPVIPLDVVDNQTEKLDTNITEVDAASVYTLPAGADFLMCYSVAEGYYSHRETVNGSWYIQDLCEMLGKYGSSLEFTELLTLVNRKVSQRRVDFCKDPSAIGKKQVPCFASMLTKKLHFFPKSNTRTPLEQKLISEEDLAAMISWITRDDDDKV
Put plainly: Western blot of Htt fragments in COS-7 cells co-transfected with Htt 1-1212AA and full-length caspase-6. Type of series: cell-based. Conditions: 10 uM compound, 24 hr, vs DMSO. As to the method:
COS-7 cells were co-transfected with the 1212 amino acid HTT fragment (SEQ ID NO: 3) and the full length human caspase-6 enzyme (SEQ ID NO:4). The co-transfected cells were exposed to either 10 uM of the PG3d compound, 3 uM of the Q-VD-Oph pan-caspase inhibitor or were treated with DMSO as a control. An aliquot of the cell lysates were subjected to Western blotting to detect HTT fragments with the Htt antibody 2166 (Millipore) and the presence of caspase-6 was detected using the HD91 antibody (Ehrnhoefer et al, HMG, 2014. 23(3):717-29). The remaining cell lysates (500 ug protein) were immunoprecipitated with 5 ug of Caspase-6 antibody for 16 hrs at 4 C. The immunoprecipitated proteins were then applied to acrylamide gels and immunoblotted to detect either the HTT fragments or the presence of the active caspase 6 enzyme using the antibodies described above.
Cos-7 cells were co-transfected with Htt 1-1212AA (SEQ ID NO:3) and full-length human caspase-6 (SEQ ID NO:6), and exposed to either the pan-caspase inhibitor Q-VD-OPh, the PG3d compound or DMSO as a negative control. As shown in the upper panel of FIG. 9A, control cells that received DMSO alone (lanes labelled n.t.) show the presence of the Htt 1212AA protein and the Htt proteolytic cleavage fragments including the 586, 552 and 513 amino acid fragments. […]

Series [2] deals with T2, recombinant caspase-6 (Homo sapiens, UniProt P55212).
T2 construct: purchased BioMol
T2 sequence (P55212 24-293): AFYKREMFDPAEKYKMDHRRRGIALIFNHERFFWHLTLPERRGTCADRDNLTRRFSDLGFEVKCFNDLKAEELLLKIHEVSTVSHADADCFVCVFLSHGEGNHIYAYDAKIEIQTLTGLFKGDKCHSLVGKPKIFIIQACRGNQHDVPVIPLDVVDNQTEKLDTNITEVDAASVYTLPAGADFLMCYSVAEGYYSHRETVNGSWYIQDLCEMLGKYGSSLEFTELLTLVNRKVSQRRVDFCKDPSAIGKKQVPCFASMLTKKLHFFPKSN
Put plainly: Simultaneous caspase-6 cleavage and 586 fragment detection by FRET. To be noted: cell-free; Htt substrate from COS-7 cell lysates. Type of series: biochemical. The method, then:
Different concentrations of the PG3 compounds were incubated with the Htt protein and the caspase-6 enzyme. The Htt substrate from COS-7 cell lysates is cleaved by caspase 6 and fragments are detected by FRET between the N-terminal BKP1 antibody and the neo-epitope antibody against amino acid 586.
COS-7 cells were grown in DMEM supplemented with 10% fetal bovine serum, 1%/penicillin/streptomycin and 0.5% glutamine. Transfections were performed using the Fugene reagent (Roche) according to manufacturer's instructions. The transfected DNA encodes amino acids 1-1212 of the human Htt protein with 15 glutamines and a C-terminal HA-tag, under control of a CMV promoter (Warby, 2008, supra; Wellington et al., 2000. J Biol Chem 275:19831-19838). The construct that was transfected is 4c Htt, which contains D→A mutations at amino acids 513, 530, 552 and […] (SEQ ID NO: 1). 24 h after transfection, cells were harvested by trypsinization, pellets washed in PBS and lysed by suspension in lysis buffer (50 mM Tris pH 8, 150 mM NaCl, 1% Igepal, supplemented with 1× complete protease inhibitor (Roche) and 4 mM Pefabloc). Lysates were incubated on ice for 10 min, vortexed and sonicated for 4 sec before centrifugation at 21,000×g for 10 min at 4° C. Supernatants were saved, protein concentration determined with the Biorad DC assay and stored at −80° C. until use.
Dilution series of cell lysates and caspase-6 (2.2× final concentration) were prepared in FRET cleavage buffer (10 mM HEPES pH 7.4, 100 mM NaCl, 0.05% gelatin, 0.1% CHAPS, 2 mM DTT) since this buffer was previously found to best stabilize caspase-6 in dilute form at room temperature. For negative controls, 22 μM zVAD-fmk was added to the caspase-6 dilutions.
Tb-labelled BKP1 antibody and D2-labelled 586 antibody (Cisbio) were diluted to 1 ng/μl (Tb) and 10 ng/μl (D2) in FRET cleavage buffer and pre-mixed at a 1:1 ratio.
In each well of a white 384 well plate (Nunc), 10 μl cell lysate were mixed with 10 μl caspase and 2 μl antibody mix, the plate was centrifuged briefly and incubated in the Victor 3 multilabel plate reader (Perkin Elmer) at 37° C. FRET was measured every 30 min for up to 2 h with the following settings: Excitation: 340 nm, Emission 1: 615 nm, Emission 2: 665 nm, 50 μs delay, 200 μs window time, 2000 μs cycle time. To obtain the final FRET signal, the ratio between Emission 2/Emission 1 (D2/Tb signal) was calculated. After 2 h at 37° C., the assay plate was sealed and after further incubation at 4° C. for 20 h, the FRET signal was read again.

Take `O=c1oc(C#Cc2ccccc2)nc(O)c1Cc1ccccc1` [PG-3d, 5-Benzyl-4-hydroxy-2-(phenylethynyl)-6H-1,3-oxazin-6-one]: the melting point is 179 to 181 °C. Besides, the “level of the 586AA Htt fragment” value in series [1] is given as “reduction”. For the same compound, in series [2], the IC50 is 5.6 µM.
